Legend:
[1] = tested on: human breast cancer (MDA-MB-231) cell line; assay: anti-proliferative activity in CESCO bellows bottle perfusion model; type: cell-based; settings: 144 h, MDA MB 231 cells in vitro, exposure for 6 days with daily refreshment, read-out: anti-proliferative (pro-apoptotic) IC50
Experimental: FIGS. 8A and 8B depict the anti-proliferative activities of unmodified tetrac, unmodified resveratrol (RV) and the combination thereof against a human breast cancer (MDA-MB-231) cell line in vitro. The cell line is estrogen receptor (ER)-negative. The test system is a CESCO bellows bottle perfusion model in which cancer cells adhere to plastic flakes and are then exposed to continuous, recycled flow of chemotherapeutic agent in an oxygenated environment. Polyphenol (10 μM) or tetrac (0.1 μM) in DMEM buffer, supplemented with fetal bovine serum, are refreshed daily. […] Results shown are means of triplicate experiments.
MDA-MB cells were seeded in perfusion CESCO bellow bottles. Cells were refreshed with 1% FBS containing DMEM after 24 h incubation. Cells were then treated with tetrac (10^−7 M), or resveratrol (0.1 mM) or both. Resveratrol was added daily and tetrac was added every three days. Cells were harvested as indicated dates and counted.

MDA-MB-231 cells = assay: RNA microarray of differentially-regulated genes; type: cell-based, human; settings: FIG. 9

IC50 [1]: 100 nM
SMILES: Oc1ccc(C=Cc2cc(O)cc(O)c2)cc1 [resveratrol]
expression of pro-apoptotic genes CASP2 and NLRP1 (NALP1) (MDA-MB-231 cells; 10 μM, 24 h): upregulated
expression of tumor markers FTCD (hepatoma) and leukemogenic FUS gene (MDA-MB-231 cells; 10 μM, 24 h): suppressed
expression of cancer-relevant genes FUS, AAKJ, USP6 (Tre6) (MDA-MB-231 cells): downregulated
